Measurements published in patent US7714014B2, “Targeting GLI proteins in human cancer by small molecules” (The Regents of the University of California, priority 2005, dated 2010).
“Also recorded” adds a separate entry of the source.

Columns and labels:
[1] = Pharmacokinetic analysis in mice (oral administration); assay type: in vivo, mouse
Description: In another pharmacokinetic study, three mice were orally administrated with the small molecule compound FN1-5 at the dose of 30 mg/kg body weight. Then, as described above, plasma was collected from the tail-vein of each mouse and the concentration of FN1-5 in each plasma sample was determined by mass spectroscopy.
Similarly, the pharmacokinetic properties of orally administered small molecule compound FN1-8 were analyzed (FIG. 22B). Comparing the uptake of FN1-8 to FN1-5, the uptake of FN1-5 after oral administration seems to be better, by about 7 fold.

H358 (NSCLC) = assay: Apoptosis analysis (Annexin V FITC, flow cytometry); assay type: cell-based, human; conditions: 3 days
Description: Apoptosis was analyzed by using an Annexin V FITC Apoptosis Detection Kit (Biosource, Camarillo, Calif.), according to the manufacturer's protocol. After treatment with different small molecule compounds at various concentrations for about 3 days, cells were harvested by trypsinization, stained and immediately analyzed by flow cytometry (FACScan; Decton Dickinson, Franklin Lake, N.J.). Early apoptotic cells with exposed phosphatidylserine but intact cell membranes will bind to Annexin V-FITC, but not propidium iodide (PI). Cells in necrotic or late apoptotic stages will be labeled with both Annexin V-FITC and PI. “% apoptotic cells” or “% apoptosis” refers to the combined early and late apoptotic cells.
Dose titration experiments of small molecule compound FN1-8 was performed using the NSCLC cell lines A549, H358, and H322. A 549, H358, and H322 cells were plated in 6-well plates and incubated with DM SO (control) or 7.5 μM, 10 μM, 15 μM, 20 μM, and 30 μM of FN1-8, respectively, for 3 days. A dramatic and dose-dependent cell killing in these cell lines was observed when FN1-8 was added at 15 μM or more. FN1-8 induced cell killing in A549 and […] at slightly lower concentrations than in H322 cells (data not shown). After 3 days, approximately 28% of the A549 cells and 58% of H358 underwent apoptosis when incubated with 20 μM FN1-8 (Table 3).

[2] = test system: NSCLC cell lines H1299, A549, H460 and colon cancer cell line SW480; assay: Cell survival assay (crystal violet), screening; assay type: cell-based, human; conditions: 50 and 100 μM, 3 days, all cancer cell lines tested
Description: (§1) Typically, the small molecule compounds of the present invention were dissolved in DMSO at a concentration of 30 mM. The small molecule compounds were then tested under cell culture conditions at different concentrations ranging from 0, 10, 30, 50, to 100 uM. To determine cell survival after treatment, the cells were incubated with the small molecule compounds in 6-well plates for about 3 days. After removal of the cell culture medium, 1-ml of 0.5% crystal violet solution (prepared in 20% ethanol and 20% methanol) was added to stain the cells for 5 min. Then the crystal violet solution was rinsed clean with tap water. Cell survival was estimated based on the density of crystal stained plates.
Cancer cell lines were plated in 6-well plates as described, and incubated with 50, and 100 μM of each compound (stocks were dissolved in DMSO at 30 mM) for 3 days. […] Apoptosis analysis was also carried out by using flow cytometry and the results were consistent (data not shown). Therefore, using the rational design design-screen approach described herein, additional small molecule compound, FN1-8, inhibiting GLI3 transcription activation domain (TAF-binding domain) was identified.

[3] = test system: melanoma cell lines A375, G361, SK-Mel-2, SK-Mel-5, and SK-Mel-28; assay: Dose titration, cell killing; assay type: cell-based, human; conditions: A375, 2-40 μM tested, 3 days; similar effect in G361, SK-Mel-2, SK-Mel-5, SK-Mel-28
Description: as §1
Dose titration experiments of small molecule compound FN1-8 was performed using the melanoma cell lines A375, G361, SK-Mel-2, SK-Mel-5, and SK-Mel-28. A 375 cells were plated in 6-well plates and incubated with DM SO (control) or 2 μM, 5 μM, 10 μM, 20 μM, and 40 μM of FN1-8, respectively, for 3 days. A dramatic and dose-dependent cell killing in this cell line was observed when FN1-8 was added at 10 μM or more (data not shown). […]

[4] = test system: human glioma cell line U87; assay: Cell survival assay (crystal violet); assay type: cell-based; conditions: U87, 50 μM
Description: as §1
The cell-based cytotoxicity assay described herein was used to determine the effect of small molecule compounds FN1-5 and FN1-8 in the human glioma cell line U87. Viability of U87 cells was analyzed after treatment with 30 and 50 μM FN1-5 and 10, 30, and 50 μM FN1-8.

Melanoma LOX tumor = assay: Mouse Xenograft Model (Melanoma LOX); assay type: in vivo; conditions: 50 mg/kg i.p. daily for 2×6 days
Description: The small molecule compound FN1-8 was tested in vivo in the mouse xenograft model bearing human cancer cells. Briefly, female athymic nude mice strain NCRNU-M (5-10 weeks old, 20-25 grams in weight; Taconic, Germantown, N.Y.) was maintained in pathogen-free conditions. Three human cancer cell lines: NSCLC H460, melanoma LOX, (both showing Gli3 activation), and colon cancer HT29 (no Gli3 activation, as a negative control), were used. Ten mice were used in each group and injected s.c. with 3×10^6 cancer cells in the dorsal area in a volume of 100 μl. After inoculation, human cancer cells were allowed to grow in mice for 7 days to become visible tumor nodules. Animals were then injected with small molecule compound FN1-8 at a dose of 50 mg/kg body weight (1 mg/mouse per day). DMSO alone was used as control. […] Tumor size was measured every three days, and tumor volumes were calculated using width (x) and length (y) (x^2y/2, where x<y). […]
In vivo efficacy study of small molecule compound FN1-8 were performed using a Mouse Xenograft Model (Melanoma Lox). […] Tumor size and tumor volumes were calculated as described above.
Three weeks after the initial tumor inoculation and the treatment as described above, tumors were dissected from the mice of each group and their weights were measured using a scale.

Row | SMILES | uptake of FN1-5 relative to FN1-8 ([1]; oral administration) | time of uptake into plasma ([1]; oral, 30 mg/kg) [min] | time within which plasma concentration diminishes ([1]; oral, 30 mg/kg) [h] | % of apoptotic cells (H358 (NSCLC); H358, 10 μM) [%] | % of apoptotic cells (H358 (NSCLC); H358, 20 μM) [%] | cell killing [2] | concentration at which dramatic and dose-dependent cell killing was observed [3] [µM] | cell killing [4] | tumor growth (Melanoma LOX tumor) | tumor weight (Melanoma LOX tumor; three weeks after inoculation)
1 | O=C(NCCCCCO)C1C(c2ccccc2)=NN(c2ccccc2)C1c1ccccc1 (stereo not shown) [FN1-5, N-(5-Hydroxypentyl)-1,3,5-triphenyl-4,5-dihydro-pyrazole-4-carboxyamide] | about 7 fold | ≤ 10 | ≤ 24 |  |  |  |  |  |  | 
2 | O=C(NCCc1ccc(O)cc1)C1C(c2ccccc2)=NN(c2ccccc2)C1c1ccccc1 (stereo not shown) [FN1-8, N-(2-(4-Hydroxyphenyl)ethyl)-1,3,5-triphenyl-4,5-dihydro-pyrazole-4-carboxyamide] |  |  |  | 15.2 | 58.1 | Dramatic cell killing | ≥ 10 | dramatic cell killing | dramatically suppressed; also recorded: significantly suppressed | dramatically decreased
